The supplement of paper PMC10307832

Legend:
Test in all cases: relative viability (nuclei count vs DMSO), 5 days (fraction); higher = more cells survive
[1] = compound: NC(=O)[C@@H](CCC(F)(F)F)N(Cc1ccc(-c2ncon2)cc1F)S(=O)(=O)c1ccc(Cl)cc1 [Avagacestat] + C[C@]1(O)C[C@@H](c2nc(-c3ccc4ccc(-c5ccccc5)nc4c3)c3c(N)nccn32)C1 [Linsitinib] (partner 1 µM)
Summary of the method: (§1)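 Relative viability equals treated-well nuclei counts divided by vehicle-well nuclei counts. Counts came from 4× images of lung cancer cell lines grown in 1536-well plates for 5 days after pin-tool dosing on the day after seeding. Dosing used one drug alone or a fixed anchor-drug dose plus five library-drug doses (not always all listed) in √10 steps, and values are medians of duplicate plates.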

[2] = compound: NC(=O)[C@@H](CCC(F)(F)F)N(Cc1ccc(-c2ncon2)cc1F)S(=O)(=O)c1ccc(Cl)cc1 [Avagacestat] + O=C(CCCCCCC(=O)Nc1ccccc1)NO [Vorinostat] (partner 1 µM)
Summary of the method: as §1

[3] = compound: NC(=O)[C@@H](CCC(F)(F)F)N(Cc1ccc(-c2ncon2)cc1F)S(=O)(=O)c1ccc(Cl)cc1 [Avagacestat] + CC1(C)CCC(c2ccc(Cl)cc2)=C(CN2CCN(c3ccc(C(=O)NS(=O)(=O)c4ccc(N[C@H](CCN5CCOCC5)CSc5ccccc5)c(S(=O)(=O)C(F)(F)F)c4)cc3)CC2)C1 [Navitoclax] (partner 0.5 µM)
Summary of the method: as §1

[4] = compound: NC(=O)[C@@H](CCC(F)(F)F)N(Cc1ccc(-c2ncon2)cc1F)S(=O)(=O)c1ccc(Cl)cc1 [Avagacestat] + Nc1nc2[nH]cc(CCc3ccc(C(=O)N[C@@H](CCC(=O)O)C(=O)O)cc3)c2c(=O)[nH]1 [Pemetrexed] (partner 0.2 µM)
Summary of the method: as §1

Cell Line	relative viability ([1]; first compound 0.08 µM)	relative viability ([1]; first compound 0.253 µM)	relative viability ([1]; first compound 0.8 µM)	relative viability ([1]; first compound 2.53 µM)	relative viability ([1]; first compound 8 µM)	relative viability ([2]; first compound 0.08 µM)	relative viability ([2]; first compound 0.253 µM)	relative viability ([2]; first compound 0.8 µM)	relative viability ([2]; first compound 2.53 µM)	relative viability ([2]; first compound 8 µM)	relative viability ([3]; first compound 0.08 µM)	relative viability ([3]; first compound 0.253 µM)	relative viability ([3]; first compound 0.8 µM)	relative viability ([3]; first compound 2.53 µM)	relative viability ([3]; first compound 8 µM)	relative viability ([4]; first compound 0.08 µM)	relative viability ([4]; first compound 0.253 µM)	relative viability ([4]; first compound 0.8 µM)	relative viability ([4]; first compound 2.53 µM)	relative viability ([4]; first compound 8 µM)
LOU-NH91	0.966	0.883	1.01	0.786	0.929	1	0.878	1.03	0.798	0.885	0.69	0.723	0.684	0.531	0.646	0.389	0.344	0.431	0.427	0.336
LU99A	0.598	0.561	0.63	0.563	0.644	0.611	0.541	0.624	0.468	0.481	0.869	0.8	0.776	0.852	0.777	0.25	0.232	0.182	0.226	0.155
LXF-289	1.02	1.02	0.957	1.02	0.82	0.954	0.884	0.791	0.921	0.86	0.964	0.996	1	1	0.885	0.986	0.947	0.936	0.905	0.799
NCI-H23	0.759	0.636	0.675	0.548	0.456	0.921	0.66	0.665	0.69	0.592	0.876	0.993	0.99	0.877	0.943	0.966	0.863	0.905	0.801	0.31
NCI-H322M	0.826	0.892	1.03	0.823	0.681	0.811	0.779	0.855	0.821	0.777	1.24	1.16	1.22	1.14	1.07	0.621	0.619	0.632	0.608	0.569
NCI-H441	0.697	0.565	0.564	0.49	0.461	0.991	0.932	0.899	0.761	0.595	0.504	0.491	1.01	0.49	0.668	0.269	0.252	0.272	0.271	0.298
NCI-H460	1.01	0.896	1.35	0.673	0.588	1.37	0.69	0.828	0.554	0.57	–	1.92	1.37	0.759	1.15	0.0657	0.0554	0.0635	0.0567	0.0624
NCI-H520	1.15	1.09	0.933	0.864	0.889	0.8	0.767	0.773	0.637	0.639	1.16	1.15	1.06	0.95	1.06	0.792	0.801	0.844	0.703	0.559
NCI-H596	1.15	1.21	1	0.827	0.986	0.591	0.643	0.609	0.588	0.627	1.21	1.02	0.928	0.792	0.865	0.594	0.56	0.578	0.528	0.503
NCI-H647	1.78	1.35	1.12	1.16	1.19	0.743	0.64	0.579	0.597	0.567	1.27	1.5	1.31	1.02	0.952	0.171	0.171	0.186	0.149	0.15
NCI-H838	1.25	1.26	1.09	0.89	0.918	0.737	0.769	0.788	0.672	0.705	1.55	1.52	1.31	1.06	1.13	0.263	0.271	0.28	0.238	0.243
NCI-H1355	0.95	0.859	0.812	0.687	0.651	0.702	0.637	0.628	0.527	0.542	1.14	0.999	0.923	0.768	0.833	1.15	1.15	1.21	0.996	0.943
NCI-H1395	1.11	1.1	1.04	0.869	0.881	0.64	0.519	0.719	0.429	0.63	1.12	1.23	1.03	0.903	1.11	0.866	0.954	1.08	0.798	0.696
NCI-H1437	1.65	1.14	1.19	0.955	0.721	1.03	1.12	1.11	0.893	0.728	1.39	1.22	1.1	1.04	0.979	0.336	0.346	0.329	0.301	0.298
NCI-H1651	1.37	1.17	1.05	0.854	0.828	0.583	0.566	0.681	0.52	0.567	1.28	1.33	1.3	1.07	0.764	0.71	0.591	0.731	0.574	0.559
NCI-H1666	1.03	0.861	1.02	0.865	1.02	1.17	1.23	1.28	1.12	1.09	1.15	1.11	1.17	0.955	1.02	0.938	0.871	0.877	0.822	0.889

Cell Line	relative viability ([1]; first compound 0.08 µM)	relative viability ([1]; first compound 0.253 µM)	relative viability ([1]; first compound 0.8 µM)	relative viability ([1]; first compound 2.53 µM)	relative viability ([1]; first compound 8 µM)	relative viability ([2]; first compound 0.08 µM)	relative viability ([2]; first compound 0.253 µM)	relative viability ([2]; first compound 0.8 µM)	relative viability ([2]; first compound 2.53 µM)	relative viability ([2]; first compound 8 µM)	relative viability ([3]; first compound 0.08 µM)	relative viability ([3]; first compound 0.253 µM)	relative viability ([3]; first compound 0.8 µM)	relative viability ([3]; first compound 2.53 µM)	relative viability ([3]; first compound 8 µM)	relative viability ([4]; first compound 0.08 µM)	relative viability ([4]; first compound 0.253 µM)	relative viability ([4]; first compound 0.8 µM)	relative viability ([4]; first compound 2.53 µM)	relative viability ([4]; first compound 8 µM)
NCI-H1734	1.2	0.924	0.946	0.819	0.782	0.876	0.901	0.829	0.761	0.824	1.11	0.96	0.875	0.777	0.724	0.437	0.398	0.401	0.426	0.434
NCI-H1755	1.05	1.05	1.03	0.991	0.951	0.884	0.782	0.891	0.666	0.791	1.08	1.21	1.09	0.959	0.943	0.541	0.478	0.383	0.372	0.383
NCI-H1793	1.01	0.926	1.02	0.913	0.657	0.841	0.985	0.773	0.865	0.993	0.434	0.491	0.507	0.347	0.396	0.907	1.03	1.07	0.94	0.785
NCI-H1915	1.11	1.18	1.08	1.08	1.09	0.56	0.633	0.522	0.477	0.479	0.84	0.812	0.798	0.807	0.828	0.521	0.573	0.537	0.5	0.52
NCI-H1944	1.28	1.15	1.47	1.04	1.01	0.716	0.635	0.497	0.554	0.54	1.14	1.09	1.03	0.989	0.993	0.784	0.654	0.613	0.599	0.585
NCI-H1975	1.14	1.19	1.04	0.943	0.994	0.823	0.866	0.765	0.694	0.628	1.26	1.28	1.25	1.07	1.02	0.312	0.325	0.316	0.291	0.308
NCI-H1993	0.754	0.746	0.765	0.773	0.749	0.797	0.771	0.74	0.7	0.631	1.08	0.995	1.09	0.905	1.04	0.826	0.542	0.686	0.684	0.504
NCI-H2009	1.26	1.34	1.2	1.22	1.1	0.704	0.876	0.733	0.722	0.694	1.27	1.23	1.17	1.12	1.13	1.16	1.15	1.11	1.02	0.975
NCI-H2023	0.789	0.784	0.628	0.606	0.47	0.625	0.554	0.617	0.471	0.6	1.14	1.28	1.12	0.834	0.894	0.322	0.221	0.302	0.257	0.221
NCI-H2085	0.913	0.967	1.08	0.922	0.84	0.815	0.855	0.807	0.758	0.882	1.21	1.37	1.13	1.26	1.08	0.856	0.871	1.04	0.902	0.861
NCI-H2087	1.2	1.2	1.03	1.2	1.02	1.14	0.914	1.07	0.771	0.68	1.34	1.19	1.02	1.16	0.931	0.658	0.651	0.741	0.632	0.662
NCI-H2126	0.757	0.705	0.696	0.706	0.67	0.792	0.715	0.842	0.711	0.753	1.02	0.899	0.875	0.798	0.832	0.67	0.687	0.698	0.605	0.683
NCI-H2228	1.04	0.765	0.786	0.62	0.534	0.752	0.787	0.569	0.641	0.511	1.25	1.19	1.08	0.903	0.956	0.364	0.35	0.346	0.301	0.302
NCI-H2347	1.04	0.989	1.02	0.943	0.897	0.599	0.646	0.78	0.499	0.522	0.907	0.866	0.923	0.663	0.797	0.426	0.454	0.447	0.465	0.406
NCI-H2405	0.873	0.852	1	0.627	0.737	1.04	1.1	1.12	0.943	0.933	0.864	0.937	0.779	0.638	0.797	1.15	1.17	1.12	1.01	1.03
